# Values quoted from earlier work in patent US7351715B2, “Unit dosage forms for the treatment of herpes simplex” (ChronoRx, LLC, priority 1998, dated 2008).
# How the values were obtained:
# HSV-1 [1] = conditions: in vitro, supplementation with exogenous GSH
# HSV = conditions: topical application, guinea pigs
# [2] = tested on: herpes simplex virus infections
# [3] = rabbits and rats
# HSV-1 [4] = conditions: in vitro cell culture
compound,measurement,setting,value
"N[C@@H](CCC(=O)N[C@@H](CS)C(=O)NCC(=O)O)C(=O)O [GSH, Glutathione]",inhibition of the replication of HSV-1,HSV-1 [1],over 99%
"Cl.NCCCC[C@H](N)C(=O)O [L-lysine, L-lysine monohydrochloride]",protection of skin from HSV inoculation,HSV,protected the skin from HSV inoculation
same,effect on rate of healing or appearance of lesions,[2]; at least one study,no effect on the rate of healing or the appearance of lesions
same,"reduction of occurrence, severity and healing time","[2]; oral, study involving 52 subjects","effective agent for the reduction of occurrence, severity and healing time"
same,herpes simplex patients with subjective improvement,"[2]; patients using L-lysine, one study",88%
O=S(=O)([O-])[O-].[Zn+2] [Zinc sulfate],inactivation of free herpes simplex virus,herpes simplex virus,inactivates free herpes simplex virus
"O=c1[nH]c(=O)n([C@H]2C[C@H](O)[C@@H](CO)O2)cc1I [idoxuridine, 2′-Deoxy-5-idouridine]",fetal malformations,[3],implicated in fetal malformations in rabbits and rats
"O=c1c(O)c(-c2ccc(O)c(O)c2)oc2cc(O)cc(O)c12 [quercetin, 3,3′,4′,5,7-pentahydroxyflavone]",intracellular viral replication,HSV-1 [4],reduced intracellular viral replication
same,reduction of infectivity of viruses including HSV-1,HSV-1 [4],concentration-dependent reduction of infectivity
